We go through two compounds from patent US9458102B2 (priority 2011, dated 2016).

Where two headings read alike, the source gives them in different places.

As a reminder, the Kd is the free concentration of one partner at which half of the binding sites on the other are occupied at equilibrium, for simple one-to-one binding.

The target of one data set is T1, proteinase K (Parengyodontium album, UniProt P06873).
T1 construct: purchased Sigma
Nature of the data set: In vitro hydrolysis by proteinase K. In kind it is in vitro ADME, Engyodontium album. Here is the method: Hydrolysis products of 4-nitrophenyl acetate and BSA were detected as positive controls.
(§1) All enzymatic assays were performed with 50 μM compound in 0.1M phosphate buffer, pH 7.4, at 37° C. with stirring, unless otherwise noted. Butyrylcholinesterase stock solutions from human serum (Sigma, St. Louis, Mo.) were prepared at 100 U/mL in 0.1 M phosphate buffer, pH 7.4, and stored at −20° C. until use. Hydrolysis was monitored on an 8452A diode array spectrophotometer (Hewlett-Packard). Product peak wavelength absorption was immediately monitored upon addition of compound. Absorbances for complete hydrolysis were determined when there were no further detectable changes. […] All hydrolysis assays were performed in triplicate, and final rate constants are expressed as the mean±SD of the three individually determined rate constants. In some experiments with compound 1, samples were taken at the beginning and end of the assay to verify the hydrolysis product and the completion of the reaction by HPLC. These samples were compared to compounds 1 and 3 on a C18 column eluted with 0.1% TFA in water/acetonitrile. Activity of chymotrypsin (bovine, Worthington Biochemical Co., 190 μg/mL) was verified with 90 μM 4-nitrophenyl acetate in 0.1 M HEPES solution, pH 6.5, at 37° C. with stirring. Hydrolysis product was monitored at 404 nm for 10 min. Activity of proteinase K (from Engyodontium album, Sigma, 165 μg/mL) was verified with 16.5 mg/mL bovine serum albumin in 0.1 M phosphate buffer, pH 7.4, at 37° C. Samples were taken at time point increments up to 2 hours when the reaction reached completion. Samples were analyzed with 12% SDS-PAGE, stained with 0.1% Coomassie Blue.

The target in data set [1] is T2, Butyrylcholinesterase purified from human blood serum (Homo sapiens, UniProt P06276).
T2 construct: Butyrylcholinesterase purified from human blood serum; purchased Sigma; host or cells: purified from human blood serum
T2 sequence (P06276 29-602): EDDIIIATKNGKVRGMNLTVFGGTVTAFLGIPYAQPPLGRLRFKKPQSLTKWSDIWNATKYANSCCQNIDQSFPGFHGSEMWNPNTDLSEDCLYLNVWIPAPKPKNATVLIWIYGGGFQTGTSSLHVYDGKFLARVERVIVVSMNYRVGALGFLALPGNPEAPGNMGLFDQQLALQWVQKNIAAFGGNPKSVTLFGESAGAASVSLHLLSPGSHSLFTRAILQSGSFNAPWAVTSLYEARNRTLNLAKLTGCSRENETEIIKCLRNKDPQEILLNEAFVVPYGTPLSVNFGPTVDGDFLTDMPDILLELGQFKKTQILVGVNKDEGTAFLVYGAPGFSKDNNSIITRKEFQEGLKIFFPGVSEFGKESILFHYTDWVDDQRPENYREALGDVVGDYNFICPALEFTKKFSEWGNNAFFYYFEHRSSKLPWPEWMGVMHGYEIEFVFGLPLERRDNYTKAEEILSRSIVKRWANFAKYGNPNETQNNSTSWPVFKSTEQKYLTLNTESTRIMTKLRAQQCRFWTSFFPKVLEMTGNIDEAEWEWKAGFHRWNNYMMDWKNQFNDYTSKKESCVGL
The data set is described as follows: In vitro hydrolysis by serum cholinesterase (butyrylcholinesterase). It counts as in vitro ADME. The settings on record: 50 μM compound, 0.1M phosphate buffer pH 7.4, 37° C.; mean±SD of triplicate. Here is the method:
Compound 1 is rapidly hydrolyzed by butyrylcholinesterase in the bloodstream. Butyrylcholinesterase purified from human blood serum was used to test the resistance of the disclosed compounds to hydrolysis.
as §1

The next data set concerns the target T3, chymotrypsin (Bos taurus, UniProt P00766).
T3 construct: purchased Worthington Biochemical Co
Nature of the data set: In vitro hydrolysis by chymotrypsin. It counts as in vitro ADME. Here is the method: as §1, with “In some experiments with compound 1, samples were taken at the beginning and end of the assay to verify the hydrolysis product and the completion of the reaction by HPLC. These samples were compared to compounds 1 and 3 on a C18 column eluted with 0.1% TFA in water/acetonitrile.” left out

The target of data set [2] is heteromeric rod CNG channels consisting of CNGA1 and CNGB1 subunits (Bos taurus, UniProt Q00194+Q28181). The data set is described as follows: biochemical. In kind it is cell-based. The conditions noted are these: 2 mM cGMP; for Kd: Table 1, mean±SD, not corrected for ion accumulation. Here is the method:
Currents were elicited by a voltage step protocol from 0 to −50 to +50 mV (See FIG. 1) in the presence of 2 mM cGMP or 2 mM cGMP and compound (5 μM). Time scale is shown in the lower left-hand corner of the panel and FIG. 1, and the zero current level is indicated by the dotted line.
The solid line indicates the fit of the equation for block at a single binding site.
Time scale is shown in the lower left-hand corner of the panel and FIG. 1, and the zero current level is indicated by the dotted line. […] Solid line indicates the fit of the equation for block at a single binding site.
The effectiveness of retinal rod CNG channel current block by the disclosed compounds was tested in Xenopus oocyte preparations. Excised, inside-out patches pulled from oocytes expressed heteromeric rod CNG channels consisting of CNGA1 and CNGB1 subunits. […] CNG channel currents were elicited by a voltage step protocol to −50 and +50 mV (FIG. 1). The apparent KD value at each membrane potential was estimated first by determining I+B and I−B at steady state, where I+B is the current in the presence of blocker and I−B is current in the absence of blocker, for different blocker concentrations ([B]).
Ovaries were surgically removed from adult Xenopus laevis females (Xenopus Express; Brooksville, Fla.) anesthetized with ice-cold 0.1% tricaine and 0.1% NaHCO3 solution. Oocytes were chemically released from ovarian follicles in Ca^2+-free Barth's solution (88 mM NaCl, 1 mM KCl, 2.4 mM NaHCO3, 0.82 mM MgSO4, 7.5 mM Tris, 2.5 mM sodium pyruvate, 100 U/mL penicillin, and 100 μg/mL streptomycin, pH 7.4) containing 0.1 U/mL Liberase Blendzymes (Roche, Indianapolis, Ind.). Stages IV and V oocytes were visually sorted and stored in ND-96 (96 mM NaCl, 2 mM KCl, 1.8 mM CaCl2, 1 mM MgCl2, 5 mM HEPES, 2.5 mM sodium pyruvate, 100 U/mL penicillin, and 100 μg/mL streptomycin, pH 7.4) at 16° C. Oocytes were co-injected the following day with 33 ng of CNGA1 and 67 ng of CNGB1 cRNA […] synthesized from linearized pGEM-HE expression vectors containing the channel subunit cDNA sequence (Strassmaier T & Karpen J, J Med Chem 50, 4186-4194, (2007), incorporated by reference herein) using T7 mMESSAGE mMACHINE® (Ambion, Austin, Tex.). Injected oocytes were incubated at 18° C. the first day and 16° C. for the remaining days.
Recordings from inside-out excised patches were made 3-7 days after oocyte injection on an Axopatch 1D® amplifier (Axon Instruments, Foster City, Calif.). Briefly, oocyte vitelline membranes were removed in solution containing 200 mM K aspartate, 20 mM KCl, 1 mM MgCl2, 10 mM EGTA, 10 mM HEPES, pH 7.4. Oocytes were placed in a recording chamber in a solution containing 130 mM NaCl, 2 mM HEPES, 0.02 mM EDTA, 1 mM EGTA, pH 7.6, and borosilicate glass electrodes (1-3 MΩ) were filled with identical solution. Macroscopic currents were filtered at 1 kHz and sampled at 2 kHz using pCLAMP 8.0® software (Axon Instruments). Channels were either fully activated with 2 mM or partially activated with 50 and 100 μM cGMP. […] Glass syringes and Teflon tubing were used to minimize the binding of compounds to surfaces; concentrations passing through the perfusion system were verified by absorbance.

heteromeric rod CNG channels consisting of CNGA1 and CNGB1 subunits, sequence (Q00194 whole entry): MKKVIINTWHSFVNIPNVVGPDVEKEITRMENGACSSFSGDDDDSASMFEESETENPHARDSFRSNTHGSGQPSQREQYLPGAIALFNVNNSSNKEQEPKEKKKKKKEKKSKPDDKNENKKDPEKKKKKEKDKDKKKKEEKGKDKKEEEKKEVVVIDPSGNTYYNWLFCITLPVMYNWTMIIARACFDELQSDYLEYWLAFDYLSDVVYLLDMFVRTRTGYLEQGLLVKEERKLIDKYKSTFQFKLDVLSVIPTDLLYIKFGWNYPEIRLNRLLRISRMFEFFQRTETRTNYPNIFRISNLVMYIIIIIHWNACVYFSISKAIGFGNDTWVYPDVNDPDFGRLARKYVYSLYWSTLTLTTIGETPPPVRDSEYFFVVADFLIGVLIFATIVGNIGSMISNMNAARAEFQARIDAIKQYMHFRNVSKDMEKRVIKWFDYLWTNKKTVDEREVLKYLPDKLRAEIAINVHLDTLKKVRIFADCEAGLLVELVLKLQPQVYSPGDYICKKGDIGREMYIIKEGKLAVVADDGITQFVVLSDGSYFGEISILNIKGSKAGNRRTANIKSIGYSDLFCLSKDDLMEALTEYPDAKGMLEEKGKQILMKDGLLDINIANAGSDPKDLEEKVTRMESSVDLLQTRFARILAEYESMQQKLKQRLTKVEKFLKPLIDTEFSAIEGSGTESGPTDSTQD
heteromeric rod CNG channels consisting of CNGA1 and CNGB1 subunits, sequence (Q28181 whole entry): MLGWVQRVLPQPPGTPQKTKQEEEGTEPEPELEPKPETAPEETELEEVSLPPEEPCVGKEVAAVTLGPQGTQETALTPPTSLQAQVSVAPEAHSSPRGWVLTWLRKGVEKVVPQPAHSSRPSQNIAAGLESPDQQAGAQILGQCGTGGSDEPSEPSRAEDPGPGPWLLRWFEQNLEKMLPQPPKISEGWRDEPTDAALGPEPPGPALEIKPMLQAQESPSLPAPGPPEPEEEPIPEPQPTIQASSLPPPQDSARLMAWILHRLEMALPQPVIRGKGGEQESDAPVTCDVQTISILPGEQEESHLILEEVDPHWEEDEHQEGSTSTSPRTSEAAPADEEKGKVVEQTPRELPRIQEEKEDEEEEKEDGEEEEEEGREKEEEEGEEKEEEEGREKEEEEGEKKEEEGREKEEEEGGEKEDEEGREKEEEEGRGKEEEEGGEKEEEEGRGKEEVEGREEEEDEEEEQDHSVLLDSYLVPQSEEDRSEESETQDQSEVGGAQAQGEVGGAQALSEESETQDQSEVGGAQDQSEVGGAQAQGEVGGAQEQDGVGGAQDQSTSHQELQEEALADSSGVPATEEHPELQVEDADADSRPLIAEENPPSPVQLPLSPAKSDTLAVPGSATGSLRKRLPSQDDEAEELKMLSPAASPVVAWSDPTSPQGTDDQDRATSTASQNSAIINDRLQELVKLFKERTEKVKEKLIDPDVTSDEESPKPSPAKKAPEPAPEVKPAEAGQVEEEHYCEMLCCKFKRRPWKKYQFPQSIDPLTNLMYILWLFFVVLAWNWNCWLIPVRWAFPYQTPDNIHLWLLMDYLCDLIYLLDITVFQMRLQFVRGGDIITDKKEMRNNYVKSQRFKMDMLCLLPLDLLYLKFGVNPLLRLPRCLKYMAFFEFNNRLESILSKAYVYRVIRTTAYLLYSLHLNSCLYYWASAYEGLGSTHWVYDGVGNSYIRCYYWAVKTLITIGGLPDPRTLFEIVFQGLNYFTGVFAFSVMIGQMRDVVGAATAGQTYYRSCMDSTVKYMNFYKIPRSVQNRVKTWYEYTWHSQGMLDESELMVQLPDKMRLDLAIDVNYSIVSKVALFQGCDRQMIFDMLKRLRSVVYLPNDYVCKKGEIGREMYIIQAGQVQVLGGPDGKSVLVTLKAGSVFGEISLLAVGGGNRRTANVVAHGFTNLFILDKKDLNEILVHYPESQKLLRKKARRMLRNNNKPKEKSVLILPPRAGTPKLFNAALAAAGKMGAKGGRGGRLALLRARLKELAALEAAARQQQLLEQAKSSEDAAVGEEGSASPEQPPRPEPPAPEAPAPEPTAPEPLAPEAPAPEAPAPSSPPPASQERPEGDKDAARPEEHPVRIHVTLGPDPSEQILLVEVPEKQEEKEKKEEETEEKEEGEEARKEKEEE
T1 sequence (P06873 106-384): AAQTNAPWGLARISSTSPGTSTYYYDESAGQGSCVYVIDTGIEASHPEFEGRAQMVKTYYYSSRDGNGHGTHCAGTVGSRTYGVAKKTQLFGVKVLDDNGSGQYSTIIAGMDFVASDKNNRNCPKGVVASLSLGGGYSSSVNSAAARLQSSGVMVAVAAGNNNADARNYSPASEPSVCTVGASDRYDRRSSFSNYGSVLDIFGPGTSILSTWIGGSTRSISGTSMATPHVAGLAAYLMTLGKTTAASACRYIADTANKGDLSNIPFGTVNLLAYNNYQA

`CCCCNc1ccc(C(=O)NCCN(C)C)cc1` [Compound 6, 4-(Butylamino)-N-(2-(dimethylamino)ethyl)benzamide]: the “hydrolysis products with proteinase K” value on proteinase K is given as “not able to generate any detectable hydrolysis products”. Moreover, in data set [1], the Hydrolysis rate was 8.4 ± 3.5 nmol/min/mg. Also, the “hydrolysis products with chymotrypsin” value at chymotrypsin is reported as “not able to generate any detectable hydrolysis products”. In addition, the Kd worked out at 4.4 ± 2 µM in data set [2] (+50 mV, read-out: KD(+50)) and 28.6 ± 13.1 µM in data set [2] (−50 mV, read-out: KD(−50)).
With `CCCCCCCCNc1ccc(C(=O)NCCN(C)C)cc1` [Compound 7, 4-(Octylamino)-N-(2-(dimethylamino)ethyl)benzamide], on proteinase K, the “hydrolysis products with proteinase K” value is “not able to generate any detectable hydrolysis products”. The compound also displayed a Hydrolysis rate in data set [1] of 1.2 ± 0.5 nmol/min/mg. Further, the “hydrolysis products with chymotrypsin” value on chymotrypsin is recorded as “not able to generate any detectable hydrolysis products”. Moreover, the “voltage dependence of block” value in data set [2] (+50 vs −50 mV) is “appreciably less voltage dependent than compound 1, 6, and 8”.
